Assay results from patent US20210284952A1, “METHODS OF APPLYING ACETATE TOXICITY AND INDUCING ACETATE UPTAKE IN MICROALGAE CULTURES” (HELIAE DEVELOPMENT LLC, priority 2016, published 2021).
Where two headings read alike, the source gives them in different places.

Key:
[1] = test system: Aurantiochytrium sp. HS399
Method: Cultures of Aurantiochytrium sp. […] 100 mL volume cultures were prepared in 250 mL flasks, and cultured at a pH of 7.0, temperature of 27° C., a shaking frequency of 180 rpm, in the dark for 5 days (120 hours). The cultures were inoculated at the same cell density.

[2] = test system: Aurantiochytrium sp. HS399; details: for Cell Dry Weight of Aurantiochytrium: 2 g/L Na Acetate
Method: This experiment was conducted to determine the effect of different culture pH levels on the growth of Aurantiochytrium sp. HS399. Duplicate 100 ml flasks of axenic cultures of Aurantiochytrium were adjusted to initial pH levels of 4, 5, 6, 7, and 8. The culture pH was adjusted using either hydrochloric acid (HCl) or potassium hydroxide (KOH). […] Samples of the flask culture were taken initially and every other day over a five-day period (120 hours).

Chlorella sp. HS26 = details: for Cell Dry Weight of Chlorella: 2.4 g/L
Method: This experiment was conducted to determine the effect of different culture medium pH levels on the growth of Chlorella sp. HS26 at a constant culture medium acetate concentration. Duplicate 100 ml flasks of axenic cultures of Chlorella were adjusted to initial pH levels of 2.5, 3.5, 4.5, 5.5, 6.5, 7.0, 7.5, 8.5, 9.5, and 10.5. The culture pH was adjusted using either hydrochloric acid (HCl) or sodium hydroxide (NaOH). […] Samples of the flask culture were taken initially and every other day over a six day period (144 hours).

With `CC(=O)[O-].[Na+]` [Sodium Acetate, sodium acetate] the growth ([1]; concentrations of sodium acetate below 100 g/L) was “grew well”, the “Cell Dry Weight of Aurantiochytrium” value ([1]; sodium acetate 5 g/L, 0 h) was 2.7 g/L and the “Cell Dry Weight of Aurantiochytrium” value ([1]; sodium acetate 5 g/L, 24 h) was 8.01 g/L. For the same molecule, the “Cell Dry Weight of Aurantiochytrium” value ([1]; sodium acetate 5 g/L, 40 h) was 8.13 g/L, the “Cell Dry Weight of Aurantiochytrium” value ([1]; sodium acetate 5 g/L, 72 h) was 7.49 g/L and the “Cell Dry Weight of Aurantiochytrium” value ([1]; sodium acetate 5 g/L, 96 h) was 7.38 g/L. For the same molecule, the “Cell Dry Weight of Aurantiochytrium” value ([1]; sodium acetate 5 g/L, 120 h) was 7.6 g/L, the “Cell Dry Weight of Aurantiochytrium” value ([1]; sodium acetate 10 g/L, 0 h) was 2.7 g/L and the “Cell Dry Weight of Aurantiochytrium” value ([1]; sodium acetate 10 g/L, 24 h) was 8.29 g/L. For the same molecule, the “Cell Dry Weight of Aurantiochytrium” value ([1]; sodium acetate 10 g/L, 40 h) was 9.69 g/L, the “Cell Dry Weight of Aurantiochytrium” value ([1]; sodium acetate 10 g/L, 72 h) was 10.35 g/L and the “Cell Dry Weight of Aurantiochytrium” value ([1]; sodium acetate 10 g/L, 96 h) was 10 g/L. For the same molecule, the “Cell Dry Weight of Aurantiochytrium” value ([1]; sodium acetate 10 g/L, 120 h) was 10.9 g/L, the “Cell Dry Weight of Aurantiochytrium” value ([1]; sodium acetate 20 g/L, 0 h) was 2.7 g/L and the “Cell Dry Weight of Aurantiochytrium” value ([1]; sodium acetate 20 g/L, 24 h) was 7.35 g/L. The “Cell Dry Weight of Aurantiochytrium” value ([1]; sodium acetate 20 g/L, 40 h) was 10.45 g/L, the “Cell Dry Weight of Aurantiochytrium” value ([1]; sodium acetate 20 g/L, 72 h) was 13.7 g/L and the “Cell Dry Weight of Aurantiochytrium” value ([1]; sodium acetate 20 g/L, 96 h) was 13.11 g/L. The “Cell Dry Weight of Aurantiochytrium” value ([1]; sodium acetate 20 g/L, 120 h) was 13.55 g/L, the “Cell Dry Weight of Aurantiochytrium” value ([1]; sodium acetate 40 g/L, 0 h) was 2.7 g/L and the “Cell Dry Weight of Aurantiochytrium” value ([1]; sodium acetate 40 g/L, 24 h) was 7.06 g/L. For the same molecule, the “Cell Dry Weight of Aurantiochytrium” value ([1]; sodium acetate 40 g/L, 40 h) was 11.84 g/L, the “Cell Dry Weight of Aurantiochytrium” value ([1]; sodium acetate 40 g/L, 72 h) was 15.78 g/L and the “Cell Dry Weight of Aurantiochytrium” value ([1]; sodium acetate 40 g/L, 96 h) was 18.9 g/L. The “Cell Dry Weight of Aurantiochytrium” value ([1]; sodium acetate 40 g/L, 120 h) was 19.65 g/L, the “Cell Dry Weight of Aurantiochytrium” value ([1]; sodium acetate 100 g/L, 0 h) was 2.7 g/L and the “Cell Dry Weight of Aurantiochytrium” value ([1]; sodium acetate 100 g/L, 24 h) was 1.7 g/L. For the same molecule, the “Cell Dry Weight of Aurantiochytrium” value ([1]; sodium acetate 100 g/L, 40 h) was 0.7 g/L, the acetate concentration tolerance ([1]; sodium acetate in the culture, pH 7.0) was “around 100 g/L” and the “Cell Dry Weight of Aurantiochytrium” value ([2]; pH 4, 0 h) was 0.28 g/L. The “Cell Dry Weight of Aurantiochytrium” value ([2]; pH 4, 24 h) was 1.1 g/L, the “Cell Dry Weight of Aurantiochytrium” value ([2]; pH 4, 48 h) was 0.79 g/L and the “Cell Dry Weight of Aurantiochytrium” value ([2]; pH 4, 72 h) was 0.51 g/L. For the same molecule, the “Cell Dry Weight of Aurantiochytrium” value ([2]; pH 5, 0 h) was 0.25 g/L, the “Cell Dry Weight of Aurantiochytrium” value ([2]; pH 5, 24 h) was 5.15 + g/L and the “Cell Dry Weight of Aurantiochytrium” value ([2]; pH 5, 48 h) was 15.2 g/L. The “Cell Dry Weight of Aurantiochytrium” value ([2]; pH 5, 72 h) was 19.4 g/L, the “Cell Dry Weight of Aurantiochytrium” value ([2]; pH 6, 0 h) was 0.18 g/L and the “Cell Dry Weight of Aurantiochytrium” value ([2]; pH 6, 24 h) was 5.1 g/L. For the same molecule, the “Cell Dry Weight of Aurantiochytrium” value ([2]; pH 6, 48 h) was 11.55 g/L, the “Cell Dry Weight of Aurantiochytrium” value ([2]; pH 6, 72 h) was 16 g/L and the “Cell Dry Weight of Aurantiochytrium” value ([2]; pH 7, 0 h) was 0.3 g/L. For the same molecule, the “Cell Dry Weight of Aurantiochytrium” value ([2]; pH 7, 24 h) was 12.25 g/L, the “Cell Dry Weight of Aurantiochytrium” value ([2]; pH 7, 48 h) was 10.8 g/L and the “Cell Dry Weight of Aurantiochytrium” value ([2]; pH 7, 72 h) was 15.7 g/L. The “Cell Dry Weight of Aurantiochytrium” value ([2]; pH 8, 0 h) was 0.25 g/L, the “Cell Dry Weight of Aurantiochytrium” value ([2]; pH 8, 24 h) was 9.1 g/L and the “Cell Dry Weight of Aurantiochytrium” value ([2]; pH 8, 48 h) was 8.95 g/L. The “Cell Dry Weight of Aurantiochytrium” value ([2]; pH 8, 72 h) was 12.6 g/L, the “cell dry weight over time” value ([2]; 2 g/L sodium acetate, pH of 4) was “did not increase over time” and the “cell dry weight over time” value (Chlorella sp. HS26; 2.4 g/L sodium acetate, pH of 5.5 or lower) was “did not increase over time”. For the same molecule, the “Cell Dry Weight of Chlorella” value (Chlorella sp. HS26; initial pH 2.5, 0 h) was 0.6 g/L, the “Cell Dry Weight of Chlorella” value (Chlorella sp. HS26; initial pH 2.5, 24 h) was 0.5 g/L and the “Cell Dry Weight of Chlorella” value (Chlorella sp. HS26; initial pH 2.5, 48 h) was 0.5 g/L. The “Cell Dry Weight of Chlorella” value (Chlorella sp. HS26; initial pH 3.5, 0 h) was 0.6 g/L, the “Cell Dry Weight of Chlorella” value (Chlorella sp. HS26; initial pH 3.5, 24 h) was 0.5 g/L and the “Cell Dry Weight of Chlorella” value (Chlorella sp. HS26; initial pH 3.5, 48 h) was 0.5 g/L. For the same molecule, the “Cell Dry Weight of Chlorella” value (Chlorella sp. HS26; initial pH 4.5, 0 h) was 0.6 g/L, the “Cell Dry Weight of Chlorella” value (Chlorella sp. HS26; initial pH 4.5, 24 h) was 0.5 g/L and the “Cell Dry Weight of Chlorella” value (Chlorella sp. HS26; initial pH 4.5, 48 h) was 0.4 g/L. The “Cell Dry Weight of Chlorella” value (Chlorella sp. HS26; initial pH 5.5, 0 h) was 0.6 g/L, the “Cell Dry Weight of Chlorella” value (Chlorella sp. HS26; initial pH 5.5, 24 h) was 0.6 g/L and the “Cell Dry Weight of Chlorella” value (Chlorella sp. HS26; initial pH 5.5, 48 h) was 0.6 g/L. The “Cell Dry Weight of Chlorella” value (Chlorella sp. HS26; initial pH 5.5, 96 h) was 0.4 g/L.
